Converted amounts (≈) assume the structure as drawn.
Columns and labels:
L929 = test: Anti-proliferation MTT assay (Example 2, Table 1); format: cell-based; settings: L929 mouse connective tissue fibroblast
Description: A given number of cells were cultivated in 96-well plates with serial dilutions of the drugs up to 100 ng/ml. Tubulysin A is used as a positive control, whereas methanol is used as a negative control. After 5 days of incubation the metabolic activities of the cells were measured using MTT-assay as described under the methods section.

COS-7 = test: cells; format: cell-based, African green monkey; settings: Chlorocebus sabaeus; COS-7, average of two measurements; read-out: IC50
Description: (§1) Cytotoxicity testing of pretubulysin (AU827), N-desmethyl-pretubulysin (AU816) and Tubulysin A and D was performed as follows: Cells were seeded at 6×10^3 cells per well of 96-well plates in 180 μl complete medium and directly treated with varying concentrations of (pre-)tubulysins diluted in methanol. Each compound was tested in duplicate as well as the internal methanol control. After 5 d incubation, 20 μl of 5 mg/ml MTT (Thiazolyl blue tetrazolium bromide) in PBS was added per well and it was further incubated for 2 h at 37° C. The medium was then discarded and cells were washed with 100 μl PBS before adding 100 μl 2-propanol/10 N HCl (250:1) in order to dissolve formazan granules.
(§2) The absorbance at 570 nm was measured using a microplate reader (EL808, Bio-Tek Instruments Inc.), and cell viability was expressed as percentage relative to the respective methanol control. IC50 values were obtained by plotting relative growth inhibition in % against the compound concentration on a logarithmic scale. After sigmoidal curve fitting IC50 values can be determined. The IC50[per ml] are shown in the following table (values represent the average of two measurements): […]

A431 = test: cells; format: cell-based, human; settings: Homo sapiens, A-431; A431, average of two measurements; read-out: IC50
Description: as §1, §2

A549 = test: cells; format: cell-based, human; settings: Homo sapiens; A549, average of two measurements; read-out: IC50
Description: as §1, §2

HEK293T = test: cells; format: cell-based, human; settings: Homo sapiens, HEK-293T, average of two measurements, read-out: IC50
Description: as §1, §2

HL-60 = test: cells; format: cell-based, human; settings: Homo sapiens; HL-60, average of two measurements; read-out: IC50
Description: as §1, §2

HepG2 = test: cells; format: cell-based, human; settings: Homo sapiens; HepG2, average of two measurements; read-out: IC50
Description: as §1, §2

K562 = test: cells; format: cell-based, human; settings: Homo sapiens; K562, average of two measurements; read-out: IC50
Description: as §1, §2

KB3.1 = test: cells; format: cell-based, human; settings: Homo sapiens, KB 3-1; KB3.1, average of two measurements; read-out: IC50
Description: as §1, §2

SH-SY5Y = test: cells; format: cell-based, human; settings: Homo sapiens, average of two measurements, read-out: IC50
Description: as §1, §2

SW480 = test: cells; format: cell-based, human; settings: Homo sapiens; SW480, average of two measurements; read-out: IC50
Description: as §1, §2

U937 = test: cells; format: cell-based, human; settings: Homo sapiens, U-937; U937, average of two measurements; read-out: IC50
Description: as §1, §2

KB.3.1 cells = test: Cell cycle analysis (FACS, DNA content); format: cell-based, human
Description: Cell cycle analysis: approximately 10^6 cells were harvested by centrifugation and fixed in −20° C. cold 80% methanol. After 30 min of incubation on ice, the cells were washed with PBS and then with saponin containing PBS (0.1%). For DNA staining cells were incubated for 30 min at 37° C. in a solution containing 20 μg ml^−1 Propidium iodide, and 1 mg ml^−1 RNase. Samples were analysed by FacScan (Becton Dickinson).
All drugs that target the microtubules are known to induce a cell cycle arrest in G2M phase in different cell lines. The ability of pre-tubulysin-816 and -827 on the progress of cell cycle in the cervices carcinoma cell line KB.3.1 was tested. Cells were treated with different concentrations of the drugs and incubated for 24 hours under cultivation conditions. After the incubation time was ended, cells were collected by centrifugation, fixed and the DNA was labeled as described in the method sections. The DNA content of the cells was detected via FACS analysis. The resulting data were calculated using Dean-Jett-Fox algorithm.

HL-60 cells = test: Apoptosis induction, DNA laddering; format: cell-based, human; settings: for apoptosis induction (DNA laddering): HL-60, 24 hours after treatment
Description: Detection of DNA laddering: Apoptotic DNA fragmentation was investigated using the method described by Gong et al. 1-2 μg DNA were loaded into a well of a 1.7% agarose gel, separated by electrophoresis at 4 volts/cm for approximately 4 hours using 0.5×TBE buffer (0.045 M Tris-borate, 1 mM EDTA). The resulting bands were stained by ethidium bromide and detected under UV-light.
Anti-mitotic agents like epothilone (Trivedi, M. et al., Future Oncol. 4, 483-500 (2008)) disorazol (Elnakady, Y. A. et al., Biochem. Pharmacol. 67, 927-935 (2004); Irschik, H. et al., Antibiot. (Tokyo) 48, 31-35 (1995)), and tubulysin (Khalil, M. et al., Chembiochem. 7, 678-683 (2006)) are known to induce apoptosis in different cancer cell lines. A hallmark of apoptosis induced by animitotic agent is the cleavage the chromosomal DNA into distinct fragments which can be separated via gel electrophoresis to give the so called DNA-Ladder. We tested the ability of pre-tubulysin-816 and -827 to induce apoptosis in HL-60 cell lines. Growing cells were treated with different concentrations of the drugs for 24 and 48 hours. After that cells were collected with centrifugation and the chromosomal DNA was separated by using agarose gel electrophoresis as described in the methods section. The resulting DNA bands were stained with ethidium bromide and visualized under UV-light. […] However, the concentration of Pre-tubulysin-816 that was needed to induce apoptosis in HL-60 cells was about 10 folds higher than that of pre-tubulysin-827 under the same experimental conditions. In Summary pre-tubulysins 816 and 827 are novel antimitotic drugs that target the microtubules, induce G2M arrest, and induce apoptosis in cancer cell lines. However, the molecular details of apoptosis induction caused by these Drugs is still to be investigated.

SMILES	IC50 (L929) [ng/mL]	IC50 (COS-7) [ng/mL]	IC50 (A431) [ng/mL]	IC50 (A549) [ng/mL]	IC50 (HEK293T) [ng/mL]	IC50 (HL-60) [ng/mL]	IC50 (HepG2) [ng/mL]	IC50 (K562) [ng/mL]	IC50 (KB3.1) [ng/mL]	IC50 (SH-SY5Y) [ng/mL]	IC50 (SW480) [ng/mL]	IC50 (U937) [ng/mL]	G2M cell cycle arrest (KB.3.1 cells; KB.3.1 cells, 24 hours)	apoptosis induction (DNA laddering) (HL-60 cells)	concentration needed to induce apoptosis relative to pre-tubulysin-827 (HL-60 cells; HL-60, same experimental conditions)	cells accumulated in the G2M-phase (KB.3.1 cells; KB3.1 cells, 100 ng/ml, 24 h (control approximately 30%)) [%]
CC[C@H](C)[C@H](NC(=O)[C@H]1CCCCN1C)C(=O)N(C)[C@H](CCc1nc(C(=O)N[C@H](CCC(=O)O)Cc2ccccc2)cs1)C(C)C [pre-tubulysin-816, N-desmethyl-pretubulysin]	37 (≈ 56.4 nM)	9.63 (≈ 14.7 nM)	0.34 (≈ 0.518 nM)	31.2 (≈ 47.6 nM)	1.68 (≈ 2.56 nM)	0.22 (≈ 0.335 nM)	8.75 (≈ 13.3 nM)	2.5 (≈ 3.81 nM)	26.3 (≈ 40.1 nM)	2.9 (≈ 4.42 nM)	3.16 (≈ 4.82 nM)	0.38 (≈ 0.579 nM)	induced an accumulation of the cells in the G2M-phase	able to induce apoptosis	about 10 folds	
CC[C@H](C)[C@H](NC(=O)[C@H]1CCCCN1C)C(=O)N(C)[C@H](CCc1nc(C(=O)N[C@@H](Cc2ccccc2)C[C@H](C)C(=O)O)cs1)C(C)C [pre-tubulysin-827, pretubulysin]	4.1 (≈ 6.12 nM)	1.13 (≈ 1.69 nM)	1.24 (≈ 1.85 nM)	4.35 (≈ 6.49 nM)	0.227 (≈ 0.339 nM)	0.0142 (≈ 0.0212 nM)	0.64 (≈ 0.955 nM)	0.35 (≈ 0.522 nM)	2.32 (≈ 3.46 nM)	0.61 (≈ 0.911 nM)	0.21 (≈ 0.313 nM)	0.043 (≈ 0.0642 nM)		able to induce apoptosis		65
